Drawing on ChEMBL document CHEMBL1126488, “A new designed tumor selective daunomycin derivative” (Bioorg Med Chem Lett, 1993), this text covers IC50 and LD50 for one compound.

A word on the IC50: it is the point on the concentration scale where inhibition reaches its midpoint. In general, LD50 refers to the dose at which mortality reaches 50%. A higher LD50 goes with a less toxic substance.

In data set [1] the test system is NHDF. In words: Cytotoxicity of compound was tested against NHDF cell line (norm human dermal fibroblast) after incubation for 72 hour. Format: functional, cell-based.
Data set [2] deals with HT-29. In words: Cytotoxicity of compound was tested against HT-29 cell line (colon carcinoma) after incubation for 24 hour. As to conditions: Homo sapiens, HT-29, 24 h. Format: functional, cell-based.
For data set [3], the system named is P388. Kind of data set: Cytotoxicity of compound was tested against P-388 cell line (mouse leukemia) after incubation for 72 hour. Format: functional, cell-based. As to conditions: P388, 72 h.
In data set [4] the test system is MCF7. Kind of data set: Cytotoxicity of compound was tested against MCF-7 cell line (breast carcinoma) after incubation for 24 hour. As to conditions: Homo sapiens, MCF7, 24 h. Format: functional, cell-based.
For data set [5], the system named is NHDF. In words: Cytotoxicity of compound was tested against NHDF cell line (norm human dermal fibroblast) after incubation for 24 hour. Format: functional, cell-based.
The subject of data set [6] is CHO. In words: Cytotoxicity of compound was tested against CHO cell line (Chinese hamster ovary) after incubation for 72 hour. The format is functional, cell-based. Particulars: Cricetulus griseus.
Data set [7] concerns SK-MEL-28. In words: Cytotoxicity of compound was tested against SK-Mel-28 cell line (melanoma) after incubation for 72 hour. The format is functional, cell-based. Particulars: Homo sapiens, SK-MEL-28, 72 h.
Data set [8] relates to UCLA P-3. In words: Cytotoxicity of compound was tested against UCLA P-3 cell line (lung carcinoma) after incubation for 24 hour. The format is functional, cell-based. As to conditions: Homo sapiens, UCLA P-3, 24 h.
The subject of data set [9] is P388. In words: Cytotoxicity of compound was tested against P-388 cell line (mouse leukemia) after incubation for 24 hour. The format is functional, cell-based. As to conditions: P388, 24 h.
Data set [10] has as its system OVCAR-3. Kind of data set: Cytotoxicity of compound was tested against Ovcar-3 cell line (ovarian carcinoma) after incubation for 72 hour. The format is functional, cell-based. As to conditions: Homo sapiens, OVCAR-3, 72 h.
Data set [11] has as its system HT-29. Kind of data set: Cytotoxicity of compound was tested against HT-29 cell line (colon carcinoma) after incubation for 72 hour. Particulars: Homo sapiens, HT-29, 72 h. Format: functional, cell-based.
The test system of data set [12] is CAPAN-1. In words: Cytotoxicity of compound was tested against […] cell line (pancreatic carcinoma) after incubation for 72 hour. The format is functional, cell-based. As to conditions: Homo sapiens, CAPAN-1, 72 h.
Data set [13] can be described thus: Lethal dose of compound required when administered BALB C mice. The format is toxicity. Particulars: mouse, in vivo.
For data set [14], the system named is HL-60. In words: Cytotoxicity of compound was tested against HL-60 cell line (promyelocytic leukemia) after incubation for 72 hour. The format is functional, cell-based. As to conditions: Homo sapiens, HL-60, 72 h.
The test system of data set [15] is MOLT-4. Kind of data set: Cytotoxicity of compound was tested against Molt-4 cell line (T-cell leukemia) after incubation for 24 hour. Format: functional, cell-based. Particulars: Homo sapiens, MOLT-4, 24 h.
The test system of data set [16] is OVCAR-3. Kind of data set: Cytotoxicity of compound was tested against Ovcar-3 cell line (ovarian carcinoma) after incubation for 24 hour. Format: functional, cell-based. As to conditions: Homo sapiens, OVCAR-3, 24 h.
The subject of data set [17] is MCF7. In words: Cytotoxicity of compound was tested against MCF-7 cell line (breast carcinoma) after incubation for 72 hour. The format is functional, cell-based. Particulars: Homo sapiens, MCF7, 72 h.
Data set [18] has as its system SK-MEL-28. In words: Cytotoxicity of compound was tested against SK-Mel-28 cell line (melanoma) after incubation for 24 hour. Particulars: Homo sapiens, SK-MEL-28, 24 h. The format is functional, cell-based.
Data set [19] concerns CAPAN-1. Kind of data set: Cytotoxicity of compound was tested against Capan-1 cell line (pancreatic carcinoma) after incubation for 24 hour. Format: functional, cell-based. As to conditions: Homo sapiens, CAPAN-1, 24 h.
Data set [20] concerns HL-60. In words: Cytotoxicity of compound was tested against HL-60 cell line (promyelocytic leukemia) after incubation for 24 hour. The format is functional, cell-based. As to conditions: Homo sapiens, HL-60, 24 h.
Data set [21] has as its system HMEC. Kind of data set: Cytotoxicity of compound was tested against HMEC cell line (human mamm epithelial cells) after incubation for 24 hour. Format: functional, cell-based.
In data set [22] the test system is CHO. In words: Cytotoxicity of compound was tested against CHO cell line (Chinese hamster ovary) after incubation for 24 hour. The format is functional, cell-based. As to conditions: Cricetulus griseus.
In data set [23] the test system is HMEC. In words: Cytotoxicity of compound was tested against HMEC cell line (human mamm epithelial cells) after incubation for 72 hour. The format is functional, cell-based.

For the compound `COc1cccc2c1C(=O)c1c(O)c3c(c(O)c1C2=O)C[C@@](O)(C(C)=O)C[C@@H]3O[C@H]1C[C@H](N)[C@H](O)[C@H](C)O1.Cl` [DAUNORUBICIN HYDROCHLORIDE], the IC50 in [1] is 404 nM; in data set [2], 780 nM; in [3], less than 98 nM; in data set [4] it was 780 nM; in data set [5], 190 nM; in data set [6], 294 nM. In addition, the concentration for half-maximal inhibition (IC50) in data set [7] was determined as 1410 nM; in data set [8], 730 nM; in data set [9], 390 nM; in data set [10] it was 287 nM; in [11], 357 nM; in data set [12], 3100 nM. For the same compound, the IC50 was found to be 98 nM in data set [14]; 1 nM in [15]; 390 nM in [16]; 13500 nM in data set [17]; 1600 nM in data set [18]; 390 nM in [19]. The half-inhibitory concentration (IC50) is less than 98 nM in data set [20], 390 nM in [21], 390 nM in data set [22] and less than 98 nM in data set [23]. For the same compound, the LD50 in [13] amounted to 15 mg/kg.
